pIC50, pKi: −log10 of the molar value.
Legend:
[1] = biological target: Carbonic anhydrase 9 (Homo sapiens, UniProt Q16790)
Description: Inhibition of human CA-IX-catalysed CO2 hydration activity incubated for 15 min by Phenol red dye based assay

[2] = biological target: T1, Carbonic anhydrase 4 (Homo sapiens, UniProt P22748)
Description: Inhibition of human CA-IV-catalysed CO2 hydration activity incubated for 15 min by Phenol red dye based assay

[3] = biological target: Carbonic anhydrase 1 (Homo sapiens, UniProt P00915)
Description: Inhibition of human CA-I-catalysed CO2 hydration activity incubated for 15 min by Phenol red dye based assay

[4] = biological target: Carbonic anhydrase 2 (Homo sapiens, UniProt P00918)
Description: Inhibition of human CA-II-catalysed CO2 hydration activity incubated for 15 min by Phenol red dye based assay

[5] = biological target: Carbonic anhydrase 12 (Homo sapiens, UniProt O43570)
Description: Inhibition of human CA-XII-catalysed CO2 hydration activity incubated for 15 min by Phenol red dye based assay

[6] = biological target: T1, Carbonic anhydrase 4; remark: listed apart in the source
Description: Inhibition of human CA-IV

Carbonic anhydrase 1, sequence (P00915 whole entry): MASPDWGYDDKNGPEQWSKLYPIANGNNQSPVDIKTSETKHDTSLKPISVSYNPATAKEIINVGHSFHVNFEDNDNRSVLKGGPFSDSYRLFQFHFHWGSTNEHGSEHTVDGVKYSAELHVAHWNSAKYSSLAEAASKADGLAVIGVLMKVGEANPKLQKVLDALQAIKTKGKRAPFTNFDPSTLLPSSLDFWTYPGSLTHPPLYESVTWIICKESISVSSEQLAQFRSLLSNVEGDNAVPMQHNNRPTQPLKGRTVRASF
Carbonic anhydrase 12, sequence (O43570 whole entry): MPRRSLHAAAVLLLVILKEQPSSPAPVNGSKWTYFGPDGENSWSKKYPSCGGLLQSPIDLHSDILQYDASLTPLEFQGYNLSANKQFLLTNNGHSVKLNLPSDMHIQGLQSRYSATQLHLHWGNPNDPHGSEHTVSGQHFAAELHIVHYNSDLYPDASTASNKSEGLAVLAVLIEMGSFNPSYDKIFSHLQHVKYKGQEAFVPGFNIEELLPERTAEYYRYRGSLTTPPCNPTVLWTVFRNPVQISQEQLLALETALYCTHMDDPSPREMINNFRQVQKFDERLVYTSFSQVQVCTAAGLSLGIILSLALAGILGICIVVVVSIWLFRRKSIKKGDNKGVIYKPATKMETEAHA
T1 sequence (P22748 whole entry): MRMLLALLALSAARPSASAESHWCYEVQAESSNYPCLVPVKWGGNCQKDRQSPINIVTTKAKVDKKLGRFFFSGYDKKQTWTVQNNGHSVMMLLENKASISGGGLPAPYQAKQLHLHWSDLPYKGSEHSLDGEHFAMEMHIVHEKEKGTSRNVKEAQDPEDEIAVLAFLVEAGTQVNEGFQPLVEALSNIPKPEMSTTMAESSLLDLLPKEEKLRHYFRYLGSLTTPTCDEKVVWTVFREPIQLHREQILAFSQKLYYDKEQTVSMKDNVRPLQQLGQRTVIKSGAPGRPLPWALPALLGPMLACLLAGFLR

pKi [1]	pKi [2]	pKi [3]	pKi [4]	pKi [5]	pIC50 [6]	Compound
< 4.00	< 4.00	< 4.00	4.11	5.15	–	CC(F)CN(CCCN1C(=O)c2ccccc2C1=O)S(=O)(=O)c1ccc([N+](=O)[O-])cc1 (centres undefined)
7.59	7.13	6.60	7.92	8.22	–	CC(F)CNCCCCN1C(=O)c2ccccc2C1=O (centres undefined)
5.66	7.15	5.35	5.62	5.38	7.15	CC(F)CNS(=O)(=O)c1ccc([N+](=O)[O-])cc1 (centres undefined)
< 4.00	4.29	< 4.00	6.14	5.28	–	CC(F)CN(CCCN)S(=O)(=O)c1ccc([N+](=O)[O-])cc1 (centres undefined)
< 4.00	< 4.00	< 4.00	–	–	–	CC(F)(F)CN(CCCN1C(=O)c2ccccc2C1=O)S(=O)(=O)c1ccc([N+](=O)[O-])cc1
< 4.00	< 4.00	< 4.00	< 4.00	< 4.00	–	CN(CC(F)CN1C(=O)c2ccccc2C1=O)S(=O)(=O)c1ccc([N+](=O)[O-])cc1 (centres undefined)
–	< 4.00	< 4.00	–	–	–	CC(F)(F)CNCCCCN1C(=O)c2ccccc2C1=O
–	7.75	–	–	–	–	CC(=O)N1N=C(c2ccc(S(N)(=O)=O)cc2)CC1c1c(Cl)cccc1Cl (centres undefined)
< 4.00	–	< 4.00	–	< 4.00	–	CC(F)(F)CNCCCN1C(=O)c2ccccc2C1=O
< 4.00	< 4.00	< 4.00	4.47	6.19	–	CC(F)CN(CCCCN1C(=O)c2ccccc2C1=O)S(=O)(=O)c1ccc([N+](=O)[O-])cc1 (centres undefined)
4.05	4.70	< 4.00	6.10	5.44	–	CN(CC(F)CN)S(=O)(=O)c1ccc([N+](=O)[O-])cc1 (centres undefined)
5.53	7.02	< 4.00	< 4.00	4.28	–	CCCNCCCN
4.70	< 4.00	5.52	7.59	6.17	–	O=[N+]([O-])c1ccc(S(=O)(=O)NCC(F)CCl)cc1 (centres undefined)
< 4.00	< 4.00	< 4.00	< 4.00	< 4.00	–	CN(CC(F)CCl)S(=O)(=O)c1ccc([N+](=O)[O-])cc1 (centres undefined)
5.51	7.03	< 4.00	< 4.00	4.54	–	CCCNCCCCN
< 4.00	< 4.00	< 4.00	7.12	< 4.00	–	O=C1c2ccccc2C(=O)N1CC(F)CNS(=O)(=O)c1ccc([N+](=O)[O-])cc1 (centres undefined)
< 4.00	< 4.00	< 4.00	< 4.00	–	–	CC(F)(F)CN(CCCCN1C(=O)c2ccccc2C1=O)S(=O)(=O)c1ccc([N+](=O)[O-])cc1
< 4.00	6.89	< 4.00	5.37	< 4.00	–	CC(F)CNCCCN1C(=O)c2ccccc2C1=O (centres undefined)
–	–	< 4.00	–	< 4.00	–	CC(F)(F)CNCCCN
–	–	< 4.00	< 4.00	< 4.00	–	CC(F)(F)CNCCCCN

Compound	pKi [1]	pKi [2]	pKi [3]	pKi [4]	pKi [5]	pIC50 [6]
CC(F)CNCCCN (centres undefined)	5.84	7.47	< 4.00	4.43	< 4.00	–
CC(F)CNCCCCN (centres undefined)	6.42	7.55	< 4.00	4.20	< 4.00	–

— ChEMBL document CHEMBL6083264, “Superacid-Synthesized Fluorinated Diamines Act as Selective hCA IV Inhibitors” (J Med Chem, 2024)
